The subject of data set [1] is lymphoid malignancies. The settings on record: clinical studies; cited from earlier work.
In data set [2] the test system is T-ALL patient derived xenograft models. The settings on record: cited from earlier work.
The test system of data set [3] is allogeneic T-cell. The settings on record: in vitro; cited from earlier work.
The subject of data set [4] is lymphocyte proliferation. The settings on record: in vitro; cited from earlier work.
Data set [5] relates to animal models of arthritis and lupus. The conditions noted are these: mice; cited from earlier work.
In data set [6] the target is GST(1-218)-(FACTOR_XA)-hsBCLXL(2-209) (Homo sapiens (Human), UniProt Q07817). Briefly: Fluorescence polarisation assay. The class given is binding. Here is the method:
Fluorescence polarization measures the rotation of a fluorescing species in solution, the larger the molecule the more polarized the fluorescence emission.
(GST UniProtKB® primary accession number P08515 and BCLXL UniProtKB® primary accession number Q07817-1), • resulting in an increase in anisotropy. If a compound is added which competitively binds to the same site as the probe, thereby releasing it, anisotropy decreases due to the increased amount of free probe.
An 11-point serial dilution of each compound was prepared in DMSO, the final buffer conditions were 10 mM 4-(2-hydroxyethyl)-1-piperazineethanesulfonic acid [HEPES], 150 mM NaCl, 0.05% Tween 20, pH 7.4 and 5% DMSO. The final protein concentration in the assay was 20 nM with the fluorescent probe present at 10 nM. […] 1; 37 (WebServer issue): W441-W445.
In general terms: In fluorescence polarisation assays a small probe gives low polarisation when free and higher when bound to something large.

Data set [7] addresses His-His-(EK)-hsBCLXL(2-197)[N197C] (Homo sapiens (Human), UniProt Q07817, N197C). Briefly: Fluorescence quenching assay. The class given is binding. The conditions noted are these: 1 nM Cy5-labelled protein, 400 nM PUMA peptide, 2 hours at 23° C.; KI determined from IC50. In short, it runs like this:
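Cy5-labelled BCL-xL (1 nM) with TQ5WS quencher-labelled PUMA peptide (400 nM); displacement by compound (11-point dilution) raises fluorescence. Buffer 10 mM HEPES, 150 mM NaCl, 0.05% Tween 20, pH 7.4, 5% DMSO; 2 h at 23° C, Ex 620/Em 680 nm. Ki derived from IC50.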

For data set [8], the system named is MOLT-4 xenografts. The data set can be described thus: Tumor regression study in MOLT-4 xenografts. The class given is in vivo, female NOD SCID mice. The conditions noted are these: 5 mg/kg IV. Here is the method: The in vivo therapeutic and pharmacodynamic effects of Bcl-xL-targeting small molecules were determined in MOLT-4 T-cell Acute Lymphoblastic Leukemia (T-ALL) model upon intravenous (IV) or oral (PO) administration.
MOLT-4 cells (ATCC No. CRL-1582) were cultured in RPMI supplemented with 10% FBS. Cells were re-suspended in 50% matrigel (BD Biosciences) and 0.1 mL containing 5×10^6 cells was subcutaneously inoculated into the right flank of female NOD SCID mice (Charles River). For efficacy studies, when tumors reached the appropriate volume, mice were randomized (7 animals per group) using Easy stat software. […] Mice body weight was monitored three times a week and tumor size was measured using electronic calipers. Tumor volume was estimated by measuring the minimum and maximum tumor diameters using the formula: (minimum diameter)^2(maximum diameter)/2. The last day with at least half of control animals still present in the study (day 31), tumor growth inhibition was calculated using the formula: […]
Response was evaluated as follows: CR (Complete Response) if tumor size was <25 mm^3 for at least three consecutive measurements, PR (Partial Response) if tumor size was comprised between 25 mm^3 and half of the starting size for at least three consecutive measurements. Mice were sacrificed at the first measurement for which tumor volume exceeded 2000 mm^3 or at the first signs of animal health deterioration.

In data set [9] the test system is circulating platelets. Briefly: Pharmacodynamics: circulating platelets in MOLT-4-grafted mice. The data set is classed as in vivo, female NOD SCID mice. The conditions noted are these: after treatment discontinuation (data not shown). As to the method:
For pharmacodynamics studies, when tumors reached the appropriate volume, mice were randomized (3 animals per group) using Easy stat software. […] Tumor samples were collected 6 h after dosing and lysed (10 mM HEPES pH 7.4, 142.5 mM KCl, 5 mM MgCl2, 1 mM EDTA, 1% NP40, protease and phosphatase inhibitors cocktails—Calbiochem). Cleared lysates were prepared for immunodetection of cleaved PARP and Caspase 3 by using the MSD apoptosis panel whole cell lysate kit (MSD) in 96-well plates according to manufacturer's instructions, and were analyzed on the QuickPlex SQ 120. Whole blood samples were analyzed on the Hematology Analyzer Coulter Ac⋅T diff (Beckman Coulter).

In data set [10] the test system is H146 cells. The data set can be described thus: H146 cell viability using MTT assay. The class given is cell-based. The conditions noted are these: Homo sapiens, NCI-H146, 48 h exposure. The procedure, abridged: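 Cells were cultured in RPMI 1640 with 10% heat-inactivated FBS, penicillin/streptomycin and 2 mM L-glutamine, then exposed 48 h to 9 concentrations (3.16-fold series, triplicates). MTT was added for 4 h and formazan solubilised overnight in SDS/HCl. OD was read at 540 nm and IC50 fitted with four-parameter curves.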

The test system of data set [11] is MOLT-4 cells. Briefly: MOLT-4 cell viability using MTT assay. The data set is classed as cell-based. The conditions noted are these: Homo sapiens, MOLT-4, 48 h, 48 h exposure. As to the method: MTT colorimetric assay is based on the mitochondrial reduction of tetrazolium salt by living cells.
Cells were cultured at 37° C. in a humidified atmosphere containing 5% CO2. […] At the end of incubation time, 15 μL of MTT solution (5 mg/ml) were added per well and the cells were incubated for another 4 h. […] IC50s were calculated using standard four-parametric curve fitting.

The subject of data set [12] is pre-clinical models of T-ALL and different types of solid tumors. The settings on record: cited from earlier work.
In data set [13] the test system is Molt-4. The settings on record: xenograft model Molt-4; cited from earlier work.

Sequence of GST(1-218)-(FACTOR_XA)-hsBCLXL(2-209) (Q07817 other isoform, or with tags, fused parts or gaps): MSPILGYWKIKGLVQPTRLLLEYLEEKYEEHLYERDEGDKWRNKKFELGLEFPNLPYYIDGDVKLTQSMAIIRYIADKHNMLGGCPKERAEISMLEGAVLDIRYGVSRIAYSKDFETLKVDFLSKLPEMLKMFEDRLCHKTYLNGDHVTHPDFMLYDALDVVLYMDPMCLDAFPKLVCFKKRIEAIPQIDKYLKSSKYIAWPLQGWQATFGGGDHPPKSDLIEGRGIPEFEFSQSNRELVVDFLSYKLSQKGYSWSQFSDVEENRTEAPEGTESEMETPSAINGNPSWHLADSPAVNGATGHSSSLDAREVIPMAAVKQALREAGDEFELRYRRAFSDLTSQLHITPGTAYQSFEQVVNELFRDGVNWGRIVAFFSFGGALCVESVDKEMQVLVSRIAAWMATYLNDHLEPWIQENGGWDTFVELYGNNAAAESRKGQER
Sequence of His-His-(EK)-hsBCLXL(2-197)[N197C] (Q07817 2-197 N197C): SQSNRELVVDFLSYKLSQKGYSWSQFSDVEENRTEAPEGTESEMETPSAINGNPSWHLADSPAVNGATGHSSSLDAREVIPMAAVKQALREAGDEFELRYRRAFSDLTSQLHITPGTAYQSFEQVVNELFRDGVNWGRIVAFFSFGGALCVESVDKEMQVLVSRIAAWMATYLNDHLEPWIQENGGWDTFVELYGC

As to `CC1(C)CCC(c2ccc(Cl)cc2)=C(CN2CCN(c3ccc(C(=O)NS(=O)(=O)c4ccc(N[C@H](CCN5CCOCC5)CSc5ccccc5)c(S(=O)(=O)C(F)(F)F)c4)cc3)CC2)C1` [ABT-263], in data set [1], the antitumor activity entry is “objective antitumor activity”. Moreover, the activity entry in data set [2] is “promising activity”.
As to `CN(C)CC[C@H](CSc1ccccc1)Nc1ccc(S(=O)(=O)NC(=O)c2ccc(N3CCN(Cc4ccccc4-c4ccc(Cl)cc4)CC3)cc2)cc1[N+](=O)[O-]` [ABT-737], in data set [3], the “allogeneic T-cell activation, proliferation, and cytotoxicity” value is “prevented allogeneic T-cell activation, proliferation, and cytotoxicity”. The lymphocyte proliferation result in [4] is listed as “potent inhibition of lymphocyte proliferation”. For the same molecule, the disease severity entry in data set [5] is “significant decrease in disease severity”. In addition, the activity result in [2] is “promising activity”.
As usually defined, the Ki is a dissociation constant, usually derived from enzyme kinetics or from competition with a known ligand. What is called IC50 is the concentration needed to halve the response being measured. On to `Cc1c(Nc2nc3ccccc3s2)nnc2c1CCCN2c1ccc(-c2cnn(CC34CC5CC(CC(C5)C3)C4)c2C)c(C(=O)O)n1` [Example 24], for which, in data set [6], the Ki was under 1 nM. Moreover, the Ki in [7] was 0.008 nM. Also, in data set [8] (Q3D6), the “% CR” value came out at 0% and the “% PR” value turned out to be 71.4%. For the same molecule, in data set [8] (Q3D6, day 31), the “% TGI (d31)” value was 78.7%. In [9], the platelets loss recovery result is on record as “platelets loss was recovered after treatment discontinuation”. In addition, in data set [10], 32.7 nM corresponded to half-maximal inhibition (IC50).
As to `Cc1c(Nc2nc3ccccc3s2)nnc2c1CCCCN2c1nc(C(=O)O)c(CCCOc2ccc(C#CCN(C)C)cc2F)s1` [Example 31, 2-{3-[(1,3-Benzothiazol-2-yl)amino]-4-methyl-5H,6H,7H,8H,9H-pyridazino[3,4-b]azepin-9-yl}-5-(3-{4-[3-(dimethylamino)prop-1-yn-1-yl]-2-fluorophenoxy}propyl)-1,3-thiazole-4-carboxylic acid], the concentration for half-maximal inhibition (IC50) amounted to 14.8 nM in data set [11] and 88.2 nM in data set [10]. For the same molecule, the values for the inhibition constant (Ki) in [6] and in data set [7] were under 1 nM and 0.0082 nM, respectively.
As to `Cc1c(Nc2nc3ccccc3s2)nnc2c1CCCN2c1nc(C(=O)O)c(CCCOc2ccc(CN)cc2F)s1` [Example 35, 5-{3-[4-(Aminomethyl)-2-fluorophenoxy]propyl}-2-{3-[(1,3-benzothiazol-2-yl)amino]-4-methyl-5H,6H,7H,8H-pyrido[2,3-c]pyridazin-8-yl}-1,3-thiazole-4-carboxylic acid], the IC50 in [11] turned out to be 30.2 nM; in data set [10], 62.8 nM. Moreover, the inhibition constant Ki is under 1 nM in data set [6] and 0.0077 nM in data set [7].
As for `CN(C)CC#Cc1ccc(OCCCc2sc(N3CCc4cccc(C(=O)Nc5nc6ccccc6s5)c4C3)nc2C(=O)O)c(F)c1` [Example A-1155463], the in vivo activity result in data set [12] is “exhibited in vivo activity”.
For the molecule `Cc1c(-c2ccc(N3CCc4cccc(C(=O)Nc5nc6ccccc6s5)c4C3)nc2C(=O)O)cnn1CC12CC3CC(CC(C3)C1)C2` [Example A-1331852], in [12], the in vivo activity result is on record as “exhibited in vivo activity”. Further, the “in vitro and in vivo activity” value in data set [13] was “in vitro and in vivo activity”.
